In patent US3954793A, “1-(2-Propynyl)-1 H-indazole compounds” (priority 1973, dated 1976):

How the values were obtained:
[1] = test system: Wilson strain house flies; format: in vivo, Wilson strain (susceptible); details: for Contact Synergistic Ratio, Pyrolan: LC50 pyrolan alone / LC50 with synergist, synergist to insecticide 5:1 by weight; for Contact Synergistic Ratio, Carbaryl: in vivo
In short: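 Wilson strain house flies held at room temperature in glass jars coated with acetone-deposited insecticide film, alone or with synergist at 5:1 synergist:insecticide by weight.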

[2] = test system: IN/WHO strain house flies; assay: topical application, percent kill after 24 hours, susceptible IN/WHO strain; format: in vivo, female); details: for percent kill after 24 hours, synergist alone: insecticide 0, synergist 1 μg/fly
In short: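 Insecticide plus synergist in acetone, 1.0 μl applied to the thorax of CO2-anesthetized 3-to-5-day-old female IN/WHO house flies, doses in μg/fly. Flies held 10 per dish, 3-5 dishes per treatment, with skim milk. Percent mortality scored after 24 h.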

[3] = test system: German male cockroaches (Blatella Germanicus); assay: topical application to thorax, 24 hour mortality of German male cockroaches; format: in vivo; details: for percent insect mortality, synergist alone (mobam test doses): synergist doses of Table XXXX; for percent insect mortality, synergist alone (mobam test doses) / percent insect mortality, synergist alone (GS 13005 test doses): no insecticide; for percent insect mortality, synergist alone (GS 13005 test doses): synergist doses of Table XXXXI
Description: The synergistic effect with mobam of synergist compounds I-B, II-H, II-K and IV-C is further illustrated by the 24 hour mortality data of German male cockroaches (Blatella Germanicus) shown in Table XXXX. The synergists and insecticide were diluted in acetone and applied in small droplets to the thorax of the insect. These doses of synergist alone gave zero percent insect mortality.
The synergistic effect with GS 13005 of compounds I-B, II-H, II-K, II-P, II-Q, II-R and IV-C is illustrated by the 24 hour mortality of German male cockroaches shown in Table XXXXI. These doses of synergist alone caused zero percent insect mortality.

[4] = GS 13005 0.10 + synergist 0.50 μg/fly
[5] = Mobam 0.20 + synergist 1 μg/fly
[6] = GS 13005 dose 0.08 + synergist 0.40, pretreated with synergist two hours before insecticide
[7] = Mobam dose 0.12 + synergist 0.60, pretreated with synergist two hours before insecticide

SMILES	Contact Synergistic Ratio, Pyrolan [1]	Contact Synergistic Ratio, Carbaryl [1]	percent kill after 24 hours, with Diazinon ([2]; Diazinon 0.03 + synergist 0.15 μg/fly)	percent kill after 24 hours, with GS 13005 ([2]; GS 13005 0.05 + synergist 0.25 μg/fly)	percent kill after 24 hours, with GS 13005 ([2]; GS 13005 0.10 + synergist 0.125 μg/fly)	percent kill after 24 hours, with GS 13005 ([2]; GS 13005 0.10 + synergist 0.25 μg/fly)	percent kill after 24 hours, with GS 13005 [2, 4]	percent kill after 24 hours, with Mobam ([2]; Mobam 0.05 + synergist 0.25 μg/fly)	percent kill after 24 hours, with Mobam ([2]; Mobam 0.10 + synergist 0.50 μg/fly)	percent kill after 24 hours, with Mobam ([2]; Mobam 0.20 + synergist 0.25 μg/fly)	percent kill after 24 hours, with Mobam ([2]; Mobam 0.20 + synergist 0.50 μg/fly)	percent kill after 24 hours, with Mobam [2, 5]	percent kill after 24 hours, synergist alone [2]	24 hour mortality, with GS 13005 [3, 6]	24 hour mortality, with GS 13005 ([3]; GS 13005 dose 0.08 + synergist 4.0, cockroaches)	24 hour mortality, with Mobam [3, 7]	24 hour mortality, with Mobam ([3]; Mobam dose 0.16 + synergist 0.80, cockroaches)	percent insect mortality, synergist alone (mobam test doses) [3]	percent insect mortality, synergist alone (GS 13005 test doses) [3]	percent kill after 24 hours, synergist alone (GS 13005 part of Table XXXI) ([2]; GS 13005 0, synergist 1 μg/fly)
C#CCON=Cc1cccc([N+](=O)[O-])c1 [I-B]	35	270	22%	2%	13%	27%	73%	0%	0%	13%	30%	73%	0%	95%	40%	80%	50%	zero	zero	–
C#CCOCc1c(Cl)cccc1Cl [II-H]	40	300	–	–	–	–	100%	–	–	–	–	100%	10%	100%	–	90%	–	zero	zero	10%
